Results taken from patent US9896482B2, “Beta hairpin peptides having antiviral properties against Dengue virus” (CENTRO DE INGENIERÍA GENÉTICA Y BIOTECNOLOGÍA, priority 2014, dated 2018).
Where a SMILES comes first, the peptide text is derived from it. Bridges are numbered along the chain shown (N, C = ends). [ ]: non-standard residue; d: D form.

Assays:
[1] = Toxicity in Vero cells (MTT assay and manual cell counting); format: cell-based; conditions: ‡ non toxic at 1000 μM, read-out: Ctox50
Procedure: The toxicity of the beta hairpin peptides was assessed with the MTT (3-(4,5-dimethylthiazol-2-yl)-2,5-diphenyltetrazolium bromide, Invitrogen, USA) assay (Mosmann, T. (1983). J. Immunol. Methods 65, 55-63.), and by manual cell counting using a Neubauer chamber. Ninety-six well plates (Costar, USA) were seeded with 200 μL/well of a suspension containing Vero cells at 1×10^5 cells/mL and incubated until the monolayers reached approximately 90% confluence, typically for 18-24 h. After washing the cells twice with DMEM (Dulbecco's Modified Eagle Medium) medium, 50 μL/well were added of the peptide or additive dilutions to be evaluated (Triton ^X-100™ dissolved in PBS was used as positive toxicity control) and the plates were incubated at 37° C. under a 5% CO2 atmosphere for 2 or 24 h. Two different procedures were then employed to measure toxicity: • a) A 2 mg/mL solution of MTT in PBS was added (50 μL/well) and the plates were incubated for further 4 h at 37° C., 5% CO2. The medium was then removed, and 100 μL/well of DMSO were then added to solubilize formazan precipitates. Finally, the optical density (OD) of the supernatants at a wavelength of 540 nm was measured using a plate reader (Sensident Scan™, Merck, Germany). • b) The plates were washed with 200 μL/well of DMEM medium and then a trypsin solution (Sigma, USA) was added at 50 μL/well. After inactivating the trypsin by adding 150 μL/well of DMEM supplemented with 10% FBS, the cells were counted using the Trypan Blue (Gibco, USA) vital stain. The data were processed using the statistical software package Prism v5.3 (GraphPad, USA), using non-linear regression to fit them to a log10 (concentration) vs response curve.

[2] = system: DENV serotype 2 (NIBSC code S16803); experiment: Plaque reduction assay in Vero cells, DENV2; format: cell-based, Dengue virus; conditions: DENV2, plaque reduction; NA = no detectable activity at concentrations lower than or equal to 100 μM; read-out: IC50, antiviral activity in Vero cells (50% inhibitory activity)
Procedure: The cells were grown in 24 well plates until the monolayer reached approximately 90% confluence, after which they were washed twice with MEM medium without Fetal Bovine Serum (FBS). Then, peptide dilutions were added and the cell-peptide mixtures were incubated typically for 1 hour at 37° C., followed by the addition of a DENV serotype 2 preparation (NIBSC code S16803) at a multiplicity of infection (m.o.i.) of 0.001. The cells were then incubated for 1 hour at 37° C., and once the period of incubation with the viral inoculum concluded, were washed again to remove unbound virions and incubated for 5 days at 37° C. in high density medium (MEM supplemented with non-essential amino acids, 1% FBS, 1% carboxymethylcellulose) in order to let viral plaques form. Afterwards, the cells were stained with 0.1% Naphtol Blue Black in 0.15 M sodium acetate. Two replicates per experimental point were used in each assay, and three independent determinations were performed for each sample.
Next, it was decided to compare the antiviral activity of peptides PHB4 and HDIII3CL against all four DENV serotypes, with the objective of comparing their respective IC50 values. This comparison was performed with plaque reduction assays on Vero cells, adding the viral inoculum for each serotype (DENV1, NIBSC code West Pac 74, DENV2, NIBSC, code S16803; DENV3, NIBSC, code CH53489; DENV 4, NIBSC code TVP360) at a m.o.i. of 0.001.

CC[C@H](C)[C@@H]1NC(=O)CNC(=O)[C@H]([C@@H](C)CC)NC(=O)[C@H](C(C)C)NC(=O)[C@H]([C@@H](C)CC)NC(=O)[C@H](CC(N)=O)NC(=O)[C@H](CO)NC(=O)[C@@H](N)CSSC[C@@H](C(=O)N[C@@H](CCCCN)C(=O)N[C@@H](CCCCN)C(=O)N[C@@H](CCCCN)C(N)=O)NC(=O)[C@H](Cc2c[nH]c3ccccc23)NC(=O)[C@H](CC(N)=O)NC(=O)[C@H]([C@@H](C)CC)NC(=O)[C@H](CCCCN)NC(=O)[C@H](CC(C)C)NC(=O)[C@H](C)NC(=O)[C@H](CCCCN)NC(=O)[C@H](CC(=O)O)NC(=O)CNC1=O [HDIII3CL2, reference compound] (H-CSNIVIGIGDKALKINWCKKK-NH2; disulfide 1-18)
CC50 [1]: 1000 µM
IC50 [2]: 20 µM

CC[C@H](C)[C@@H]1NC(=O)[C@H]([C@@H](C)O)NC(=O)[C@H](C(C)C)NC(=O)[C@H](CC(N)=O)NC(=O)[C@H](C(C)C)NC(=O)[C@@H](N)CSSC[C@@H](C(=O)N[C@@H](CCCCN)C(=O)N[C@@H](CCCCN)C(=O)N[C@@H](CCCCN)C(N)=O)NC(=O)[C@H](Cc2c[nH]c3ccccc23)NC(=O)[C@H](CC(N)=O)NC(=O)[C@H](Cc2ccc(O)cc2)NC(=O)[C@H](CCCCN)NC(=O)[C@H](CCCCN)NC(=O)CNC(=O)[C@H](CC(N)=O)NC1=O [PHB7] (H-CVNVTINGKKYNWCKKK-NH2; disulfide 1-14)
CC50 [1]: 1910 µM
IC50 [2]: 79 µM

CC(C)[C@@H]1NC(=O)[C@H](CCCCN)NC(=O)[C@H](Cc2c[nH]c3ccccc23)NC(=O)[C@H](CCCCN)NC(=O)[C@H]2CCCN2C(=O)[C@H](CCCNC(=N)N)NC(=O)[C@H]([C@@H](C)O)NC(=O)[C@H](Cc2c[nH]c3ccccc23)NC(=O)[C@H](Cc2ccc(O)cc2)NC(=O)[C@H](C(C)C)NC(=O)[C@@H](N)CSSC[C@@H](C(=O)N[C@@H](CCCCN)C(=O)N[C@@H](CCCCN)C(=O)N[C@@H](CCCCN)C(N)=O)NC(=O)[C@H](Cc2c[nH]c3ccccc23)NC(=O)[C@H](CC(N)=O)NC1=O [PHB2] (H-CVYWTR[dP]KWKVNWCKKK-NH2; disulfide 1-14)
CC50 [1]: 85 µM
IC50 [2]: 12 µM

CC(C)[C@H](NC(=O)[C@H](CC(N)=O)NC(=O)[C@H](Cc1c[nH]c2ccccc12)NC(=O)[C@@H](NC(=O)[C@H](Cc1c[nH]c2ccccc12)NC(=O)[C@H](CCCCN)NC(=O)[C@H](CC(N)=O)NC(=O)[C@@H](CCCCN)NC(=O)[C@H](CCC(=O)O)NC(=O)[C@H](Cc1c[nH]c2ccccc12)NC(=O)[C@H](CCCCN)NC(=O)[C@H](Cc1c[nH]c2ccccc12)NC(=O)[C@H](CC(N)=O)NC(=O)[C@H](Cc1c[nH]c2ccccc12)NC(=O)[C@@H](N)Cc1ccccc1)[C@@H](C)O)C(=O)N[C@@H](CCC(=O)O)C(=O)NCC(=O)NCC(=O)N[C@@H](CCCCN)C(=O)N[C@@H](CCCCN)C(=O)N[C@@H](CCCCN)C(N)=O [PHB5] (H-FWNWKWE[dK]NKWTWNVEGGKKK-NH2)
CC50 [1]: 259 µM
IC50 [2]: 17 µM

CC(C)[C@H](NC(=O)[C@H](CC(N)=O)NC(=O)[C@H](Cc1c[nH]c2ccccc12)NC(=O)[C@@H](NC(=O)[C@H](Cc1c[nH]c2ccccc12)NC(=O)[C@H](CCCCN)NC(=O)[C@H](CC(N)=O)NC(=O)[C@H]1CCCN1C(=O)[C@H](CCC(=O)O)NC(=O)[C@H](Cc1c[nH]c2ccccc12)NC(=O)[C@H](CCCCN)NC(=O)[C@H](Cc1c[nH]c2ccccc12)NC(=O)[C@H](CC(N)=O)NC(=O)[C@H](Cc1c[nH]c2ccccc12)NC(=O)[C@@H](N)Cc1ccccc1)[C@@H](C)O)C(=O)N[C@@H](CCC(=O)O)C(=O)NCC(=O)NCC(=O)N[C@@H](CCCCN)C(=O)N[C@@H](CCCCN)C(=O)N[C@@H](CCCCN)C(N)=O [PHB6] (H-FWNWKWE[dP]NKWTWNVEGGKKK-NH2)
CC50 [1]: 411 µM
IC50 [2]: 33 µM
